# Reference: patent US8455440B2, “Combination anticoagulant therapy with a compound that acts as a factor Xa inhibitor” (Millennium Pharmaceuticals, Inc., priority 2007, dated 2013)
# Experiments:
# [1] = test system: venous thromboembolism (VTE); experiment: Prospective randomized trial for prevention of venous thromboembolic events after total knee replacement; conditions: for VTE %: 10-14 days
# From the text: Safety endpoints included the incidence of major and clinically significant nonmajor bleeds through the day after venography. All efficacy and bleeding endpoints were adjudicated by a blinded, independent central adjudication committee.
# [2] = test system: human whole blood; experiment: Real time perfusion chamber: whole blood perfused over collagen and tissue factor coated surface; format: cell-based; conditions: shear rate 300 s^−1, five donors
# Procedure: After the perfusion, the thrombotic activity was quantified by measurement of labeled fibrin produced as a result of fibrinogen cleavage during the activation of platelets and the blood coagulation system. For this series of experiments in five healthy human volunteers, blood was obtained by venipuncture and treated with 2.4 μM eptifibatide. The dose of eptifibatide corresponds to the plasma concentration attained by therapeutic concentrations of the GPIIb/IIIa inhibitor.
# [3] = test system: clotting times (prothrombin time, PT and activated partial thromboplastin times, aPTT); experiment: Ex vivo clotting times (PT, aPTT) in the rat thrombosis model
# Procedure: (§1) In this experiment, the ability of Compound A to maintain vessel patency under arterial flow conditions in ferric chloride induced thrombosis in rat carotid artery is compared to that achieved by clopidogrel. Compound A was administered by intravenous infusions and clopidogrel was dosed orally for three days. Ex vivo platelet aggregation induced by 10 μM ADP and clotting times (prothrombin time, PT and activated partial thromboplastin times, aPTT) were measured over the experimental time course (90 min) in all animals.
# as §1, with “The combination effect of an anticoagulant and anti-platelet agent, aspirin, was investigated in an in vivo model of thrombosis. […] In” for “In”, “aspirin.” for “clopidogrel.”, “aspirin” for “clopidogrel”, “administered as an intravenous bolus approximately 30 min prior to the start of the experiment.” for “dosed orally for three days.”, “μg/mL of collagen” for “μM ADP”
# [4] = test system: Thrombosis on mouse mesenteric arteries; experiment: FeCl3 thrombosis on mouse mesenteric arteries; format: in vivo, mice; conditions: for Mean time to occlusion: P2Y12^+/− mice, 10 mg/kg
# From the text: Commonly used P2Y12 antagonists such as clopidogrel are prescribed at doses that block 40-50% of the P2Y12 receptors on platelets of treated patients. It has been shown that P2Y12^+/− mice which express ˜50% of the receptor on their platelets compared to wild type control (P2Y12^+/+), display an intermediate thrombosis phenotype between wild type and mice completely deficient in P2Y12 (P2Y12^−/−). (Andre, P., et al., J Clin Invest, 2003. 112(3):398-406). P2Y12 regulates platelet adhesion/activation, thrombus growth, and thrombus stability in injured arteries. The effect of Compound A was studied in a thrombosis model with P2Y12^+/− mice to effectively mimic the combination of dual dosing of factor Xa inhibitor and P2Y12 antagonist in humans.
# Thrombosis on mouse mesenteric arteries (shear rate 1000-1300 s^−1) was performed and recorded as previously described (Andre, P., et al., J Clin Invest, 2003. 112(3):398-406). Platelets were labeled in situ using rhodamine 6G (0.2 mg/mL) and administered through the tail vein 10 min before visualization of the arteries. Vessel-wall injury was triggered by a 1×1-mm filter paper saturated with a 10% FeCl3 solution. After 5 minutes, the filter paper was removed and mesenteric arteries rinsed with warmed saline (37° C.). Platelet vessel-wall interactions were recorded for 40 additional minutes or until full occlusion occurred and persisted for more than 40 seconds. C57Bl6J mice (wild type control or P2Y12^+/−) were orally gavaged with vehicle control, compound A (2, 4, 10 mg/kg) two hours prior to vascular injury. Thrombosis was analyzed in real time using Simple PCI software. The fluorescence intensity was recorded at a rate of 2 Hz for 40 minutes and plotted over time. Time to occlusion (cessation of blood flow) was analyzed. Plasma concentrations of Compound A were determined on blood collected 2 min post-occlusion or 42 min after start of vascular injury.
# [5] = Plasma concentrations of Compound A in telemeterized dogs; format: in vivo; conditions: combination with verapamil
# From the text: It is further contemplated that in patients being treated for atrial fibrillation, blood pressure lowering drugs such as beta blockers or calcium channel blockers and Compound A may be used concomitantly. Drugs like verapamil are known inhibitors of p-glycoprotein function. […] See Example 10.
# The study was designed to evaluate the in vivo effect of Compound A upon co-administration with a selective L type calcium channel blocker, verapamil. Three beagle dogs were implanted with Data Science Telemetry transmitters (DSI model # TL11M2-D70-PCT) to measure conscious (un-anaesthetized) and unrestrained systolic and diastolic blood pressure following oral dosing with Compound A, verapamil or a combination of the two. The study design was a three way crossover with one week between doses to ensure complete elimination of residual agents from the dogs' circulatory system. Data was analyzed for a twelve hour period, starting with one hour pre-oral dosing of Compound A and ending with eleven hours post-dosing. Data acquisition and analysis was performed using LDS Life Science Suite Ponemah P3 plus V 4.20 software with results reported as 10 minute averages for each animal.
# [6] = test system: Interleukin 8; experiment: Ex vivo cytokine release in human whole blood: interleukin 8; format: cell-based
# Procedure: An ex vivo assay system of human cytokine release was used to test whether inhibition of factor Xa should augment the effect of reduction of inflammation elicited by standard anti-inflammatory drugs, such as aspirin.
# At the end of the activation period, blood samples were centrifuged at 13,000 rpm (15,000 g) for 5 min in an Eppendorf 5415G centrifuge. Plasma was removed, treated with protease inhibitor cocktail (Roche) and stored frozen at −80° C. Cytokines released from the blood cells were quantitated in a Multiplexed Biomarker Immunoassay for Luminex Instrumentation (Millipore USA).
# [7] = test system: systolic and diastolic blood pressure; experiment: Telemetry blood pressure in conscious beagle dogs, three way crossover; format: in vivo
# Procedure: The study design was a three way crossover with one week between doses to ensure complete elimination of residual agents from the dogs' circulatory system. […] Data acquisition and analysis was performed using LDS Life Science Suite Ponemah P3 plus V 4.20 software with results reported as 10 minute averages for each animal.
# AUC was derived from the systolic and diastolic baseline. […] Negative values represent a decrease in blood pressure relative to the baseline value.
# [8] = Compound A 0.03 μM, aspirin 3 mg/kg, or both
# [9] = wild type mice, 10 mg/kg oral gavage
# [10] = Dog # 1, oral, Compound A 3 mg/kg, verapamil 10 mg/kg
# [11] = Dog # 2, oral, Compound A 3 mg/kg, verapamil 10 mg/kg
# [12] = Dog # 3, oral, Compound A 3 mg/kg, verapamil 10 mg/kg
# [13] = three dogs, oral, Compound A 3 mg/kg, verapamil 10 mg/kg
compound,measurement,setting,value
"COc1ccc(NC(=O)c2ccc(C(=N)N(C)C)cc2)c(C(=O)Nc2ccc(Cl)cn2)c1 [Compound A, [2-({4-[(dimethylamino)iminomethyl]phenyl}carbonylamino)-5-methoxyphenyl]-N-(5-chloro(2-pyridyl))carboxamide]",Clinical significant nonmajor bleeds %,[1]; Compound A 15 mg bid,0%
same,Major Bleeds %,[1]; Compound A 15 mg bid,0%
same,VTE %,"[1]; Compound A 15 mg bid oral, n = 69",20%
same,Clinical significant nonmajor bleeds %,[1]; Compound A 40 mg bid,2.4%
same,Major Bleeds %,[1]; Compound A 40 mg bid,0%
same,VTE %,"[1]; Compound A 40 mg bid oral, n = 65",15%
same,Mean Fluorescence,[2]; 10 nM Compound A + 2.4 μM eptifibatide,107.7
same,Mean Fluorescence,[2]; 25 nM Compound A + 2.4 μM eptifibatide,85.0
same,Mean Fluorescence,[2]; 50 nM Compound A + 2.4 μM eptifibatide,64.5
same,Mean Fluorescence,[2]; 75 nM Compound A + 2.4 μM eptifibatide,34.7
same,Mean Fluorescence,[2]; 100 nM Compound A + 2.4 μM eptifibatide,33.0
same,PT ratio,[3]; 0.03 μM Compound A,1.08
same,PT ratio,[3]; 0.1 μM Compound A,1.19
same,PT ratio,[3]; 0.3 μM Compound A,1.33
same,APTT Ratio,[3]; [8],1.08
same,PT ratio,[3]; [8],1.07
same,change in PT,[3]; therapeutic dose of the single agent,33%
same,plasma concentration sufficient to prevent vascular occlusion,[4]; P2Y12^+/− animals,more than 76 ng/mL
same,time to occlusion,[4]; P2Y12^+/− mice with Compound A (756.7 seconds without),over 2100 seconds
same,Mean time to occlusion,[4]; Experiment 1,2143 s
same,Mean time to occlusion,[4]; Experiment 2,2399 s
same,Mean time to occlusion,[4]; Experiment 3,2305 s
same,circulating plasma concentration that prevented vascular occlusion,[4]; wild type animals,more than 1000 ng/mL
same,time for appearance of first thrombus,[4]; [9],significantly delayed
same,time to occlusion,[4]; [9],significantly delayed
same,antithrombotic effect,"[4]; wild type mice, 2 and 4 mg/kg oral gavage two hours prior to injury",non-effective
same,"plasma concentrations of Compound A, dual treatment versus single treatment",[5],about two times higher
same,reduction in the levels of released interleukin 8,[6]; Compound A added to blood samples from donors under aspirin therapy,44%
same,further reduction of interleukin 8,[6]; addition of Compound A to whole blood of aspirin treated donors prior to collagen activation,18%
same,diastolic blood pressure (DBP) compared to pre-dose values,"[7]; Compound A 3 mg/kg as a single agent, oral",no statistical differences
same,Lowest Diastolic Blood Pressure Post-Dosing,[7]; [10],92.57 mmHg
same,Lowest Systolic Blood Pressure Post-Dosing,[7]; [10],150.32 mmHg
same,Lowest Diastolic Blood Pressure Post-Dosing,[7]; [11],83.73 mmHg
same,Lowest Systolic Blood Pressure Post-Dosing,[7]; [11],121.08 mmHg
same,Lowest Diastolic Blood Pressure Post-Dosing,[7]; [12],80.52 mmHg
same,Lowest Systolic Blood Pressure Post-Dosing,[7]; [12],101.93 mmHg
same,"Mean Area Under the Curve for Systolic Pressure (AUCP), Mean ± S.D.","[7]; following verapamil or placebo administration ([…]), relative to baseline",782.7 ± 1297.8 mmHg * min.
same,measures of blood pressure upon coadministration with verapamil,[7]; telemeterized dogs,did not change the measures of blood pressure
same,"Lowest Diastolic Blood Pressure Post-Dosing, Mean ± S.D.",[7]; [13],85.60 ± 6.24 mmHg
same,"Lowest Systolic Blood Pressure Post-Dosing, Mean ± S.D.",[7]; [13],124.44 ± 24.37 mmHg
